Assay results taken from ChEMBL document CHEMBL1201862, “PubChem BioAssay data set” (2004).
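The compound was tested at five concentrations on cells cultured in 96-well plates, with a 48-hour exposure period. At the GI50, growth is halved.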 The source made the active and inactive calls. Rule as the data show it: active = GI50 up to about 1.1 µM and inactive = higher.

Experiments:
Assay in all cases: NCI-60 cell line screen, 48 h
[1] = system: MOLT-4
[2] = system: OVCAR-8
[3] = system: MDA-MB-435
[4] = system: SNB-75
[5] = system: SK-MEL-28
[6] = system: NCI/ADR-RES
[7] = system: RPMI-8226
[8] = system: COLO 205
[9] = system: OVCAR-4
[10] = system: NCI-H522
[11] = system: HL-60
[12] = system: OVCAR-5
[13] = system: HCC 2998
[14] = system: SK-MEL-2
[15] = system: DU-145
[16] = system: U-251
[17] = system: MCF7
[18] = system: SF-295
[19] = system: UACC-257
[20] = system: HCT-116

Measured: GI50

CCCCCCCCOc1ccc(/C=C/C2=[N+](CCO)CCO2)cc1
inactive: [1] 3.65 µM | [2] 3.14 µM | [3] 3.52 µM | [4] 2.67 µM | [5] 4.53 µM | [6] 12.6 µM | [7] 2.2 µM | [8] 2.42 µM | [9] 3.6 µM | [10] 2.02 µM | [11] 2.62 µM | [12] 9.42 µM | [13] 3.47 µM | [14] 2.3 µM | [15] 5 µM | [16] 2.86 µM | [17] 4.65 µM | [18] 3.96 µM | [19] 3.38 µM | [20] 2.7 µM
